Measurements taken from article PMC10296415, “Methyl-Thiol-Bridged Oxadiazole and Triazole Heterocycles as Inhibitors of NF-κB in Chronic Myelogenous Leukemia Cells” (Biomedicines, 2023).

Assays:
MCF-7 cell line = test: MTT cell viability assay, MCF-7; format: cell-based
Description: (§1) MCF-7 cells were purchased from Procell Life Science and Technology Co., Ltd., Wuhan, China, and cultured in MEM or Leibovitz’s L-15 medium containing 2% FBS. MCF-7 cells were maintained in a 5% CO2-humidified atmosphere at 37 °C. KCL22, LAMA84, and K562 cells were obtained from the American Type Culture Collection (Manassas, VA, USA). The KBM5 cell line was previously provided by Dr. Bharat Aggarwal (University of Texas M.D. Anderson Cancer Center, Houston, TX, USA). KBM5 cells were cultured in IMDM medium with 10% inactivated FBS and 1% penicillin-streptomycin. KCL22, LAMA84, and K562 cells were cultured in RPMI with 10% FBS and 1% penicillin-streptomycin antibiotics and maintained at 37 °C in a 5% CO2 chamber.
(§2) Cells (1 × 10^4 cells/well) were seeded on a 96-well plate and treated with 4c (0, 5, 10, 15, 30, 50 µM) for 24 h. After 24 h of treatment, 30 µL of MTT solution (2 mg/mL) for 2 h, followed by MTT lysis overnight. Cell viability was analyzed by measuring the absorbance of lysed MTT crystals using VARIOSKAN LUX (Thermo Fisher Scientific Inc., Waltham, MA, USA) at 570 nm.

MCF-10A cells = test: Cytotoxicity assay, MCF-10A; format: cell-based; conditions: Homo sapiens, MCF-10A; normal mammary epithelial cells
Description: as §2

[1] = tested on: CML cells (KMB5, KCL22, LAMA84, and K562 cell lines); test: MTT cell viability assay, CML cells; format: cell-based, human; conditions: 0, 5, 10, 15, 30, 50 µM, 24 h
Description: as §1, §2

[2] = MTT cell viability assay, PBMC; format: cell-based; conditions: normal PBMC cells, 30 and 50 µM
Description: as §2

NF-κB = test: EMSA of TNFα-induced NF-κB DNA binding in CML cells; format: cell-based, human; conditions: 4c 0, 5, 15, 30 µM 2 h, then TNFα 0.5 nM 10 min; nuclear extracts
Description: CML cells (1 × 10^6 cells/well) were treated with indicated concentrations of 4c (0, 5, 15, 30 µM) for 2 h, then TNFα (0.5 nM) for 10 min. Nuclei extracts were prepared from whole cell pellets and incubated with NF-κB oligonucleotides (5′-[…]-3′ and 5′-[…]-3′), and Oct-1 (5′-[…]-3′ and 5′-[…] -[…]-3′) was used for loading control. The protein–DNA complex was run on a 5% gel, and the respective proteins were detected using the EMSA kit (Waltham, MA, USA).

NF-κB-p65 = test: Immunocytochemistry of p65 nuclear translocation in CML cells; format: cell-based, human; conditions: 4c 30 µM 2 h, then TNFα 0.5 nM 10 min
Description: CML cells (1 × 10^6 cells/well) were treated with 4c (0 or 30 µM) for 2 h, followed by TNFα (0.5 nM) addition for 10 min. Further, the CML cells were fixed, permeabilized, and blocked with 5% BSA-PBS. The cells were visualized by using primary anti-p65 antibodies and secondary antibodies called Alexa Fluor® 594 donkey anti-rabbit IgG (H + L). Nuclei were stained with DAPI, and the immobilized cells were mounted with Fluorescent Mounting Medium (Golden Bridge International Labs, Mukilteo, WA, USA) and finally quantified using an Olympus FluoView FV1000 confocal microscope (Tokyo, Japan).

[3] = tested on: p-IKKα/β, p-IκBα, phospho-p65; test: Western blot of NF-κB complex subunits in CML cells; format: cell-based, human; conditions: 4c 30 µM pre-treatment, TNFα 0.5 nM
Description: (§3) CML cells were treated with compound 4c, harvested, and the cell lysates were obtained. The required proteins of our interest were separated on SDS-PAGE and transferred into the nitrocellulose membrane. The membrane was incubated with primary antibody and HRP-conjugated secondary antibody in a sequential manner. The ECL kit (EZ-Western Lumi Femto, DOZEN) was used to detect the respective proteins.

[4] = tested on: COX-2 binding to p65 promoter; test: ChIP assay in CML cells; format: cell-based, human; conditions: 4c 0, 5, 15, 30 µM
Description: CML cells (1 × 10^6 cells/well) were incubated with compound 4c (5, 15, 30 µM) for 24 h and immunoprecipitated with anti-NF-κB p65 antibody. RT-PCR was performed with COX-2 at 94 °C for 5 min, 94 °C for 30 s, 58 °C for 30 s, 72 °C for 30 s with 30 cycles, and extension at 72 for 7 min. All the experiments were performed 3 times as individual repeats.

[5] = tested on: survivin, MMP-9, Bcl-2/xl, VEGF, COX-2, PARP; test: Western blot of NF-κB regulated proteins and PARP in CML cells; format: cell-based, human; conditions: 4c 30 µM pretreatment, TNFα 0.5 nM for 0, 6, 12, 24 h
Description: as §3

SMILES: COc1ccc(Cc2nnc(SCc3cn(-c4ccc(Cl)c(Cl)c4)nn3)o2)cc1 [Compound 4c, 2-(((1-(3,4-Dichlorophenyl)-1H-1,2,3-triazol-4-yl)methyl)thio)-5-(4-methoxybenzyl)-1,3,4-oxadiazole]
- IC50 (MCF-7 cell line; Homo sapiens, MCF7, viability of MCF-7 cell line): 9 to 16 µM
- IC50 (MCF-7 cell line; viability of MCF-7 cell line): 7.4 ± 0.87 µM
- IC50 (MCF-10A cells): > 100 µM
- cell viability in CML cells [1]: concentration-dependent loss of cell viability
- viability at 24 h [2]: > 80%
- binding of NF-κB to DNA induced by TNFα (NF-κB): substantially inhibited
- translocation of NF-κB-p65 to nuclei (NF-κB-p65): suppressed the translocation of NF-κB-p65 to nuclei
- p-IKKα/β and p-IκBα induced by TNFα ([3]; cytoplasmic extracts): inhibited
- phospho-p65 in nuclei ([3]; nuclear extracts): suppressed phospho-p65 in nuclei
- p65 binding to the COX-2 promoter [4]: markedly inhibited COX-2 binding to the p65 promoter
- cleavage of PARP [5]: enhanced the cleavage of PARP
- expression of anti-apoptotic proteins (survivin, MMP-9, Bcl-2/xl, VEGF, COX-2) [5]: suppressed the expression of these proteins
